Data on six compounds can be found in PMC10745926, “Synthesis and Evaluation of Compound Targeting α7 and β2 Subunits in Nicotinic Acetylcholinergic Receptor” (Molecules, 2023).

In assay [1] the test system is human α4β2 nAChR. As to conditions: cited from earlier work.
A further assay addresses human α7 nAChR. Particulars: read-out: Binding affinity α7*; human α7 nAChR in SH-SY5Y cells; cited from earlier work.
The subject of assay [2] is human α4β2 nAChR. As to conditions: cytisine, from cited affinities.
Assay [3] deals with T1, α7 nAChR (Rattus norvegicus, UniProt Q05941). The assay can be described thus: biochemical. The assay is classed as binding.
For assay [4], the target named is T2, α4β2* nAChR (Rattus norvegicus, UniProt P09483+P12390).
T2 construct: Horizontal brain slices, 10 µm thick from male Sprague Dawley rats; from tissue; host or cells: rat brain slices (male Sprague Dawley), several brain regions
The assay can be described thus: [3H]cytisine competition binding on rat brain slices (autoradiography). As to the method: Our previously published procedures were used for [^3H]cytisine experiments. Horizontal brain slices, 10 µm thick from male Sprague Dawley rats, were preincubated in the buffer (50 mmol/L Tris HCl containing 120 mmol/L NaCl, 5 mmol/L KCl, 2.5 mmol/L CaCl2, 1 mmol/L MgCl2, pH 7.4) for 10 min. The pre-incubation buffer was then discarded and the slices were incubated with [^3H]cytisine (2.5 nM, specific activity of 32.7 Ci/mmol) at 2 °C for 75 min. […] After incubation, slices were washed twice (2 min each wash) with ice-cold Tris buffer, pH 7.4, followed by a quick rinse in cold (0–5 °C) deionized water. The slides were then air dried and the radiolabeled brain sections were apposed on storage phosphor screens for two weeks (Perkin Elmer Multisensitive, Medium MS, New Jersy, USA). For autoradiographic analysis, the apposed phosphor screens were read and analyzed by OptiQuant acquisition and analysis program of the Cyclone Storage Phosphor System (Packard Instruments Co., Boston, MA, USA). Regions of interest of same size were drawn and analyzed on brain regions using OptiQuant software version 2 and binding of [^3H]cytisine measured in DLU/mm^2. Data were analyzed using following procedure: (a) the non-specific binding of [^3H]cytisine was subtracted for all samples; (b) the specific binding was normalized to 100% (no competitive ligand); and (c) the binding isotherms were fit to the Hill equation (KELL BioSoft software (v 6), Cambridge, UK).

In assay [5] the target is T1, α7 nAChR. More on the design: method as in PMID 28875553. As to conditions: rat cloned receptors labeled with α-[125I]BuTX; read-out: Binding affinity α7*; cited from earlier work.
For assay [6], the target named is T2, α4β2* nAChR. The assay can be described thus: Rat brain homogenates labeled with 3H-cytisine (literature). The format is binding. As to conditions: α4β2 value from 3H-cytisine rat brain homogenates, α7 from rat cloned receptors.
Assay [7] concerns the target T2, α4β2* nAChR. The assay is classed as binding.
The target in assay [8] is T2, α4β2* nAChR. Particulars: read-out: Binding affinity α4β2*; rat brain cortex labeled with 3H-epibatidine; cited from earlier work.
Assay [9] deals with α4β2 nAChR. Further details: method as in PMID 24050653. As to conditions: HEK293 cells transfected with α4β2 nAChRs; read-out: Binding affinity α4β2*; cited from earlier work.
For assay [10], the system named is α7 nAChR. The assay can be described thus: HEK293 cells transfected with α7 nAChRs (ASEM, literature). The assay is classed as binding. Particulars: from cited affinities.
Assay [11] deals with α7 nAChR. Further details: method as in PMID 24050653. Particulars: HEK293 cells transfected with α7 nAChRs; read-out: Binding affinity α7*; cited from earlier work.
Assay [12] concerns the target α4β2 nAChR. More on the design: method as in PMID 25687449. Particulars: HEK293 membranes expressing α4β2 nAChRs; read-out: Binding affinity α4β2*; cited from earlier work.
Assay [13] concerns the target α7 nAChR. More on the design: method as in PMID 25687449. Particulars: cited from earlier work.
Assay [14] relates to α7 nAChR. The assay can be described thus: HEK293 membranes expressing α7 nAChRs (Iodo-ASEM, literature). The format is binding. Particulars: IodoASEM, from cited affinities.
Assay [15] concerns α4β2* nAChR. As to conditions: cited from earlier work.
Assay [16] concerns the target T1, α7 nAChR. The format is binding.
Assay [17] addresses T1, α7 nAChR. More on the design: method as in PMID 18445710. As to conditions: tested in rat; read-out: Binding affinity α7*; cited from earlier work.
[18] abbreviates: frontal cortex values taken from Table 1.

Read-outs that look alike come from different tables or passages of the source. Marks after values point to notes of the source that are not given here.

For the compound `O=c1cccc2n1C[C@@H]1CNC[C@H]2C1` [Cytisine], the “α7/α4β2 Ratio” value in the assay on human α4β2 nAChR [1] (heterologously expressed human receptors) is 544 ^e. The Ki at human α4β2 nAChR [1] (read-out: Binding affinity α4β2*, human α4β2 in HEK293 cells) is 1.27 nM; at human α7 nAChR, 691 nM. The “α4β2/α7 Ratio” value with human α4β2 nAChR [2] came out at 0.002.

On to `c1ncc(N2CCN3CCC2CC3)cc1OCC1CCN1` [KS7, 3-(2-(S)-azetidinylmethoxy)-5-(1,4-diaza-bicyclo[3.2.2]nonane)pyridine], for which the IC50 on α7 nAChR [3] (frontal cortex value taken from Table 1, read-out: Binding affinity α7*) was 9900 nM; at α7 nAChR [3] (rat brain slices, Anterior Cingulate, read-out: Inhibition constants (IC50), [125I]α-BuTX, α7* nAChRs), 12600 nM; at α7 nAChR [3] (rat brain slices, Frontal Cortex, read-out: Inhibition constants (IC50), [125I]α-BuTX, α7* nAChRs), 9900 nM; at α7 nAChR [3] (rat brain slices, Hippocampus, read-out: Inhibition constants (IC50), [125I]α-BuTX, α7* nAChRs), 33200 nM; on α7 nAChR [3] (rat brain slices, Inferior Colliculus, read-out: Inhibition constants (IC50), [125I]α-BuTX, α7* nAChRs), 46800 nM; on α4β2* nAChR [4] (frontal cortex value taken from Table 1, read-out: Binding affinity α4β2*), 109 nM. Further, the IC50 at α4β2* nAChR [4] (rat brain slices, Anterior Cingulate, read-out: Inhibition constants (IC50), [3H]Cytisine, α4β2* nAChRs) is 49.5 nM; at α4β2* nAChR [4] (rat brain slices, Frontal Cortex, read-out: Inhibition constants (IC50), [3H]Cytisine, α4β2* nAChRs), 109 nM; on α4β2* nAChR [4] (rat brain slices, Striatum, read-out: Inhibition constants (IC50), [3H]Cytisine, α4β2* nAChRs), 86.9 nM; on α4β2* nAChR [4] (rat brain slices, Subiculum, read-out: Inhibition constants (IC50), [3H]Cytisine, α4β2* nAChRs) it was 172 nM; on α4β2* nAChR [4] (rat brain slices, Thalamus, read-out: Inhibition constants (IC50), [3H]Cytisine, α4β2* nAChRs), 134 nM; at α4β2* nAChR [4] (rat brain, several brain regions (abstract), read-out: IC50 for [3H]cytisine radiolabeled sites), 50 to 172 nM. For the same compound, the “α4β2/α7 Ratio” value on α4β2* nAChR [4] (setting [18]) is given as 0.01 ^j. Further, the “α7/α4β2 Ratio” value on α4β2* nAChR [4] (setting [18]) is 91 ^j; on α4β2* nAChR [4] (ratio of IC50 values, Anterior Cingulate) it was 254; on α4β2* nAChR [4] (ratio of IC50 values, Frontal Cortex), 91.

`Fc1ncccc1OC[C@@H]1C=CCN1` [Nifene]: the Ki on α7 nAChR [5] is 169 nM; on α4β2* nAChR [8], 1.07 nM. The “α7/α4β2 Ratio” value is 338 at α4β2* nAChR [6] and 158 on α4β2* nAChR [7] (α4β2 value from 3H-epibatidine rat cortex, α7 from rat cloned receptors). In addition, on α4β2* nAChR [7] (listed as with α4β2 value from 3H-epibatidine rat cortex), the “α4β2/α7 Ratio” value stood at 0.007.

Consider `O=S1(=O)c2cc(N3CCN4CCC3CC4)ccc2-c2cccc(F)c21` [ASEM], for which the Ki on α4β2 nAChR [9] is 562 nM; at α7 nAChR [11], 0.37 nM. Also, the “α7/α4β2 Ratio” value in the assay on α7 nAChR [10] is reported as 0.0007.

On to `O=S1(=O)c2cc(N3CCN4CCC3CC4)ccc2-c2cccc(I)c21` [IodoASEM], for which the Ki is 1710 nM on α4β2 nAChR [12] and 0.5 nM on α7 nAChR [13] (HEK293 membranes expressing α7 nAChRs, read-out: Binding affinity α7*). The “α4β2/α7 Ratio” value with α7 nAChR [13] (HEK293 membranes) is 3414 ^h. The “α7/α4β2 Ratio” value with α7 nAChR [14] is 0.0003.

In the case of α-Iodobungarotoxin, the “Binding affinity α4β2*” value in the assay with α4β2* nAChR [15] was >1000 ^f nM. On α7 nAChR [16], the “α4β2/α7 Ratio” value was determined as 2000 and the “α7/α4β2 Ratio” value is 0.0005. Also, the Ki at α7 nAChR [17] was 0.5 nM.
